Results from US20250195525A1, “ANGIOTENSIN II RECEPTOR ANTAGONIST FOR THE PREVENTION OF SYSTEMIC DISEASES IN CATS” (Boehringer Ingelheim Vetmedica GmbH, priority 2023, published 2025).

How the values were obtained:
[1] = in vivo
[2] = tested on: angiotensin II receptor 1; experiment: Angiotensin II induced blood pressure response in laboratory cats; type: in vivo, cat
Source text: Moreover, a study in laboratory cats was established to investigate the Angiotensin II induced increase in diastolic blood pressure prior to and after administration of telmisartan. This test was established to estimate the potency as well as the duration of action of sartans, in particular of telmisartan in cats.

[3] = cat, in vivo
[4] = tested on: cats with CKD; experiment: placebo controlled field trial in client-owned cats with CKD: progression of SBP; type: in vivo, cat; settings: 1 mg/kg body weight
Experimental: This prospective, placebo controlled, randomized, double-blind, multicenter, multinational field study enrolled client-owned cats that were presented in the normal course of veterinary practice to evaluate safety and efficacy of telmisartan on progression-free survival time in cats with CKD compared to placebo. In this study 545 cats were randomly assigned to telmisartan (1 mg/kg body weight) or placebo in a ratio of 1:1.
At least two weeks before the start of the field study, creatinine value and Urine Specific Gravity (USG) were determined. Only cats were included in the study which were diagnosed with CKD, meaning a creatinine value ≥1.9 mg/dl (168 μmol/L) and <5.0 mg/dL (440 μmol/L) and a USG of <1.035.
At all visit timepoints, SBP was recorded prior to performing any other procedures scheduled for the animal during the visit. • 5 SBP readings were taken following a ≥10 minute acclimation period. • The highest and the lowest SBP were excluded and a mean of the remaining 3 SBPs was used to obtain the mean SBP for that visit. Visits were scheduled on Day 0, 30, 90, 180, 270, 365, 450, 540, 630, 730, 810, 900, 990, 1080, 1170, 1260, 1350, 1440 (each ±7) and, if applicable, additional visits every 3 months (+7 days).

[5] = human patients, high dose of 160 mg daily (80 mg twice daily); cited from earlier work

- AUC ([1]; iv): 0.385 µg·h/mL
- AUC ([1]; po): 0.15 µg·h/mL
- mean V/f oral (second mention, after the intravenous values) [3]: 8.8 L/kg
- mean V/f oral ([3]; po): 20.4 L/kg
SMILES: CCCc1nc2c(C)cc(-c3nc4ccccc4n3C)cc2n1Cc1ccc(-c2ccccc2C(=O)O)cc1 [Telmisartan, 4′-[2-n-propyl-4-methyl-6-(1-methylbenzimidazol-2-yl)-benzimidazol-1-ylmethyl]-biphenyl-2-carboxylic acid]
- inhibition of the blood pressure response ([2]; cats, doses of less than 0.05 mg per kg body weight, majority of the tested cats): about 75%
- diastolic blood pressure responses to increasing intravenous doses of Angiotensin II ([2]; laboratory cats, approximately 24 hours after the last oral dosing, target dose compared with Placebo): significantly reduced
- Time to event for progression of SBP (up to 160 mmHg), median no. of days [4]: 446.0 days
- delay in reaching the endpoint of SBP of 160 mmHg versus placebo (median number of days) ([4]; compared to placebo): 84.5 days
- Mean probability for progression of SBP ([4]; progression = SBP ≥160 mmHg and increase of >20 mmHg compared to baseline): 0.035
- plasma level (Cmax±SD) [5]: about 2800±2400 ng/ml
